Key:
[1] = system: NF1-associated plexiform neurofibromas (PN); test: Phase 2b trial in adult and pediatric patients with NF1-associated inoperable plexiform neurofibromas; response by BICR volumetric MRI per REiNS criteria; type: in vivo, human; conditions: for DoR ≥12 months: Kaplan-Meier based approach, data cut-off September 2023
Procedure: Participants were screened (assessed for eligibility as described below). […] The median age was 34.5 years (range 18 to 69 years); 85% were white and 64% were female. […] The most commonly reported morbidities were pain (90%) and disfigurement or major deformity (52%).
The median age was 10 years (range 2 to 17 years); 66% were white and 54% were female. […] The most commonly reported morbidities were pain (70%) and disfigurement or major deformity (50%).
(§1) Study treatment was administered orally at a twice daily (BID) dose specified in the table below. Dosing was on a 28-day Cycle (4-week course) with a 3 week on/1 week off schedule. The treatment period will last for up to 24 Cycles followed by a 30-day Safety Follow-Up period.
A partial response was defined as PN decrease≥20% compared to baseline using centrally read MRI volumetric analysis.
The major efficacy outcome measure was confirmed objective response rate (ORR), defined as the percentage of patients with complete response (disappearance of the target PN) or confirmed partial response (≥20% reduction in PN volume confirmed at a subsequent tumor assessment within 2-6 months during the 24-cycle treatment phase). Responses were assessed by blinded independent central review (BICR) using volumetric magnetic resonance imaging (MRI) analysis per Response Evaluation in Neurofibromatosis and Schwannomatosis (REINS) criteria. A secondary efficacy objective was to determine the duration of response for patients who achieved a confirmed objective response.

[2] = Pharmacokinetic parameters and characteristics of mirdametinib (Table A); type: in vivo, human; conditions: for Tmax [median (range)]: post dose
Procedure: as §1

[3] = Pediatric patients (2 to <18 years)

O=C(NOC[C@H](O)CO)c1ccc(F)c(F)c1Nc1ccc(I)cc1F (single isomer, unassigned) [mirdametinib]
DoR ≥12 months ([1]; Adult responders): 18 (75%) n (%)
DoR ≥12 months ([1]; Pediatric responders): 22 (76%) n (%)
Median time to onset of response ([1]; adult cohort, range 4.0 to 19.0 months): 7.8 months
Median time to onset of response ([1]; pediatric cohort, range 4.1 to 18.8 months): 7.9 months
Steady-state exposure AUClast [geometric mean (geometric % CV)] ([2]; Adult patients (≥18 years)): Adult patients (≥18 years): 431 (43%) ng · h/mL
Steady-state exposure Cmax [geometric mean (geometric % CV)] ([2]; Adult patients (≥18 years)): Adult patients (≥18 years): 188 (52%) ng/mL
Tmax [median (range)] ([2]; Capsule): Capsule: 1.08 (0.00-4.17) hours post dose
Steady-state exposure AUClast [geometric mean (geometric % CV)] [2, 3]: Pediatric patients (2 to <18 years): 459 (46%) ng · h/mL
Steady-state exposure Cmax [geometric mean (geometric % CV)] [2, 3]: Pediatric patients (2 to <18 years): 191 (62%) ng/mL
Tmax [median (range)] ([2]; Tablet): Tablet: 0.83 (0.42-3.02) hours post dose

— patent publication US20250387353A1 (SpringWorks Therapeutics, Inc., priority 2024, published 2025)
